Data set [1] has as its system new bone formation in subcutaneous pouch. Nature of the data set: Subcutaneous implantation of DBM/PFC slurry in a rat pouch, histology at 28 days. The format is in vivo. The settings on record: subcutaneous pocket, PFC with DBM. The method, then: (§1) The induction of bone growth using DBM and an oxygen carrier was previously disclosed in U.S. Publication Application No. 2012/0082704, the entire contents of which are herein incorporated by reference. In order to investigate the properties of a perfluorocarbon (PFC) oxygen carrier and to investigate the effects of DBM and a PFC in two environments having different vascularization, four different PFCs were assayed in combination with DBM. Specifically perfluorohexane, (PFC1), perfluorodecalin (PFC2), perfluorotributylamine (PFC3), and perfluoroperhydrophenanthrene (PFC4) were mixed with DBM (powder or chips) to form a DBM/PFC mixture. In some embodiments, the amount of PFC in the PFC/DBM mixture is in the range of about 32-48 weight %. Sterile saline was then added to provide a slurry with the handling characteristics of wet sand. […] This DBM/PFC slurry mixture was then applied to a subcutaneous pouch and an intramuscular pouch in the rat biceps femoris.
(§2) 0.4 ml of the perfluorocarbon was filtered through a 0.2 micron filter and added to 0.8 g of DBM (powder or chips) at the time of surgery prior to implantation in either a subcutaneous or an intramuscular pouch in the rat biceps femoris. Using a sterile spatula the mixture was gently mixed to ensure complete wetting out of the DBM powder. This was assessed visually. 1.4 ml of sterile saline was then added to the mixture and the resultant slurry was loaded into a 1 ml syringe with its end removed, resulting in a composition including PFC at about 32 to about 48% by weight. The mixture was lightly tamped and using the plunger on the syringe a 0.2 ml implant volume was defined. This was then introduced into the rat pouch. The PFCs included several perfluoroperhydrophenanthrene and perfluorodecalin that have achieved FDA clearance for use in various procedures in humans. In prior studies bone forms readily in DBM implanted in the SD […] model, and thus a human DBM was selected specifically to be from low activity level batches (1965 picograms/gram BMP2; Spec>2300) (Allosource®, Centennial, Colo.). A formulation consisting of DBM+PFC+Saline was prepared at the time of surgery. […] Perfluorohexane, (PFC1), perfluorodecalin (PFC2), and perfluoroperhydrophenanthrene (PFC4) were obtained from a GMP manufacturer and have varying levels of US Device/Drug usage. Accordingly, perfluorohexane, (PFC1), perfluorodecalin (PFC2), and perfluoroperhydrophenanthrene (PFC4) represent material and supplier suitable for use in a commercial product.
(§3) 30 SD Rats (Rattusnorvegicus, CR; NIH-RNU) received bilateral placement of test article (i.e., the DBM and PFC slurry) intramuscularly within the biceps femoris muscle or subcutaneously. Each animal acted as its own control with a saline/DBM implant in the contralateral limb. […]

The test system of data set [2] is new bone formation in intramuscular pouch in the rat biceps femoris. Nature of the data set: Intramuscular implantation of DBM/PFC slurry in rat biceps femoris, histology at 28 days. The format is in vivo. The settings on record: DBM/PFC slurry mixture in saline, intramuscular pocket in biceps femoris, control DBM alone in contralateral limb. How it is done:
as §1, §2, §3

For data set [3] the following is noted: in vivo; cited from earlier work.

Molecules are shown by their SMILES.

As for `FC(F)(F)C(F)(F)C(F)(F)C(F)(F)C(F)(F)C(F)(F)F` [PFC1, Perfluorohexane], the “performance of the PFCs relative to each other in new bone formation” value in data set [1] is “performed equally”. For the same compound, in data set [2], the “histologic grade of new bone formation as compared to DBM alone” value (from here on “histologic grade … compared to DBM alone”) is “increased histologic grade of new bone formation”.
For `FC1(F)C(F)(F)C(F)(F)C2(F)C(F)(F)C(F)(F)C(F)(F)C(F)(F)C2(F)C1(F)F` (stereo not drawn) [PFC2, Perfluorodecalin], in data set [1], the “performance of the PFCs relative to each other in new bone formation” value is “performed better than PFC1, PFC3, and PFC4”. In addition, the “histologic grade … compared to DBM alone” value in data set [2] is recorded as “increased histologic grade of new bone formation”. The “retention in the liver” value in data set [3] is on record as “not retained in the liver”.
Take `FC(F)(F)C(F)(F)C(F)(F)C(F)(F)N(C(F)(F)C(F)(F)C(F)(F)C(F)(F)F)C(F)(F)C(F)(F)C(F)(F)C(F)(F)F` [PFC3, Perfluorotributylamine]: the “performance of the PFCs relative to each other in new bone formation” value in data set [1] is on record as “performed equally”. Also, in data set [2], the “histologic grade … compared to DBM alone” value was “increased histologic grade of new bone formation”.
In the same order, the values of `FC1(F)C(F)(F)C(F)(F)C2(F)C(F)(C1(F)F)C(F)(F)C(F)(F)C1(F)C(F)(F)C(F)(F)C(F)(F)C(F)(F)C12F` (stereo not drawn) [PFC4, Perfluoroperhydrophenanthrene] are “performed equally” and “increased histologic grade of new bone formation”.

The record behind these values is patent publication US9308295B2, “Oxygenated demineralized bone matrix for bone growth” (THERACELL, INC., priority 2013, dated 2016).
